# Where two headings read alike, the source gives them in different places. Marks after values point to notes of the source that are not given here.
# How the values were obtained:
# [1] = target: rat Nav1.6 sodium channels (Rattus norvegicus, UniProt O88420); assay type: cell-based; conditions: for Effect of repetitive depolarization on modification (words): trains of high-frequency depolarizing prepulses; for Steady-state inactivation K (slope factor) / Activation K (slope factor) / Activation V0.5 (midpoint potential) / Steady-state inactivation V0.5 (midpoint potential) / Tail current decay time constant, fast component (τ1) / Peak current inactivation time constant, fast component (τfast) / Peak current inactivation time constant, slow component (τslow): pyrethroid 100 μM; for Steady-state inactivation K (slope factor) / Activation K (slope factor) / Activation V0.5 (midpoint potential) / Steady-state inactivation V0.5 (midpoint potential): Boltzmann fit; for Steady-state inactivation K (slope factor): control 7.02 ± 0.13; for Activation K (slope factor): control 8.02 ± 0.23; for Activation V0.5 (midpoint potential): control −17.0 ± 0.4; for Steady-state inactivation V0.5 (midpoint potential): control −50.3 ± 0.3; for Tail current decay time constant, fast component (τ1) / Peak current inactivation time constant, fast component (τfast) / Peak current inactivation time constant, slow component (τslow): mean ± SE; for Peak current inactivation time constant, fast component (τfast): control 1.32 ± 0.03; for Peak current inactivation time constant, slow component (τslow): control 10.93 ± 2.25
# [2] = target: rat Nav1.2 sodium channels (Rattus norvegicus, UniProt P04775, N209D); assay type: cell-based
# rats [3] = test: Acute oral toxicity to rats; assay type: in vivo, rat; conditions: ref Soderlund et al., 2002
# rats [4] = conditions: rat, in vivo; cited from earlier work
# [5] = 0 prepulses, Hill fit, mean ± SE of 5
# [6] = 100 prepulses, Hill fit, mean ± SE of 5
# [7] = EC10 0 prepulses vs 100 prepulses
# Chain of rat Nav1.2 sodium channels (P04775 whole entry N209D): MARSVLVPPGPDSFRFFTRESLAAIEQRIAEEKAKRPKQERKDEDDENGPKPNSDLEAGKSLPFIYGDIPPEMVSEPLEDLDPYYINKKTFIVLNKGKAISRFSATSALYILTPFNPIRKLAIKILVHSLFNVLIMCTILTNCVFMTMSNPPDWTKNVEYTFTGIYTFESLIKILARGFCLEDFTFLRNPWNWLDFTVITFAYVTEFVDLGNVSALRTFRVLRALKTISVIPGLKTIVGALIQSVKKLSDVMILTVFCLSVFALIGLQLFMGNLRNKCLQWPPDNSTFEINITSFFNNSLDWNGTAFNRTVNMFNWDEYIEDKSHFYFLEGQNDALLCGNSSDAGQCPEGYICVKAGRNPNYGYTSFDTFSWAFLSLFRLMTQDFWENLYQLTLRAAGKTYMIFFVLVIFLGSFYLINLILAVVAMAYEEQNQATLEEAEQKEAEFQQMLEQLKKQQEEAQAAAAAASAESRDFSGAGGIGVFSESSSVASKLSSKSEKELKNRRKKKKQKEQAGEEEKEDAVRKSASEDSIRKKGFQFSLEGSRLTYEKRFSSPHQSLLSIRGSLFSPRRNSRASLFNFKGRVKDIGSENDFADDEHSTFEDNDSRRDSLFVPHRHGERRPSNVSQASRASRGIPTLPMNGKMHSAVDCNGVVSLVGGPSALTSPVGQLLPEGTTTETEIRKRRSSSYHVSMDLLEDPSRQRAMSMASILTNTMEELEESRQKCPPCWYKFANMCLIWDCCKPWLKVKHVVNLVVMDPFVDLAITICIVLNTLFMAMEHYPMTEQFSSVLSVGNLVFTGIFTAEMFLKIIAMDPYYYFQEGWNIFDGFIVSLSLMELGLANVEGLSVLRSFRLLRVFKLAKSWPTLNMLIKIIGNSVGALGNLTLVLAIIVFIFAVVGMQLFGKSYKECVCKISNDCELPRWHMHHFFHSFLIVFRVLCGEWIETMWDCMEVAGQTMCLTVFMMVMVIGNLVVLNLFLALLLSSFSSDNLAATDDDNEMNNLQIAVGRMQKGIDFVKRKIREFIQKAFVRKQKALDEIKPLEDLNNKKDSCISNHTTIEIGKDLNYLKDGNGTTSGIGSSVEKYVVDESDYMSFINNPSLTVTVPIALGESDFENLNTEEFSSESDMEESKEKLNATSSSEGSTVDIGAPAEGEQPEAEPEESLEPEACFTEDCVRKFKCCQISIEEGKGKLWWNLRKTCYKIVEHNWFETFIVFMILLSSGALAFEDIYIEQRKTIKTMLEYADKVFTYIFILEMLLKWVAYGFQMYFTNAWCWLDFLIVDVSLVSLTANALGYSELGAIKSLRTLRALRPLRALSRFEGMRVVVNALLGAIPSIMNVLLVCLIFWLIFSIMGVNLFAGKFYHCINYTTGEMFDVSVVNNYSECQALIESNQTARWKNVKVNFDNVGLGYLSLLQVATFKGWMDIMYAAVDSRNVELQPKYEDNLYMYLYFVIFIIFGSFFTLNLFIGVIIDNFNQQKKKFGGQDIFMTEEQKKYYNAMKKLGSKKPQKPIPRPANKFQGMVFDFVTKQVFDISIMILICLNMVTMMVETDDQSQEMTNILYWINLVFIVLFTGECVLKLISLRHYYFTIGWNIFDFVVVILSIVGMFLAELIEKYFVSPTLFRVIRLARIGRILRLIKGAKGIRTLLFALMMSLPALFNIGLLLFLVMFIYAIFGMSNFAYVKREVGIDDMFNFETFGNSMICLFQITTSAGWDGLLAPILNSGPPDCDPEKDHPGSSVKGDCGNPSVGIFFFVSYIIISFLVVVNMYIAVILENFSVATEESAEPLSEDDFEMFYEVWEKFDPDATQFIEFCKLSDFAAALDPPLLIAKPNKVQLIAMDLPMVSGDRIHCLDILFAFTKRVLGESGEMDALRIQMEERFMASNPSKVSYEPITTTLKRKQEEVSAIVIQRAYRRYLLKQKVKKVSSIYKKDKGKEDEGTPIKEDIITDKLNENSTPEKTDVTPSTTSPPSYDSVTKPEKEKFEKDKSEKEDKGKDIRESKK
# Chain of rat Nav1.2 sodium channels (Q00954 19-218 partner): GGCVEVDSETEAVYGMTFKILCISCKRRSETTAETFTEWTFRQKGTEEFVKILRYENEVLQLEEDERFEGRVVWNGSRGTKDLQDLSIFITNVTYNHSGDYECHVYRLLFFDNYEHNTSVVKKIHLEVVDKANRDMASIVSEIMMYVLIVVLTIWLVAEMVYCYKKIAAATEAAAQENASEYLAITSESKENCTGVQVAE
# Chain of rat Nav1.2 sodium channels (P54900 30-215 partner): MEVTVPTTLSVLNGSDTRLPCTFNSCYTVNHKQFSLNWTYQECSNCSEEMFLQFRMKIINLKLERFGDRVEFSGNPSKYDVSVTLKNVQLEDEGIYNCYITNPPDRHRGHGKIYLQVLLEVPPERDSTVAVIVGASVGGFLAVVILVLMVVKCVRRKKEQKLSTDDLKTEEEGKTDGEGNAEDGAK
# Chain of rat Nav1.6 sodium channels (O88420 whole entry): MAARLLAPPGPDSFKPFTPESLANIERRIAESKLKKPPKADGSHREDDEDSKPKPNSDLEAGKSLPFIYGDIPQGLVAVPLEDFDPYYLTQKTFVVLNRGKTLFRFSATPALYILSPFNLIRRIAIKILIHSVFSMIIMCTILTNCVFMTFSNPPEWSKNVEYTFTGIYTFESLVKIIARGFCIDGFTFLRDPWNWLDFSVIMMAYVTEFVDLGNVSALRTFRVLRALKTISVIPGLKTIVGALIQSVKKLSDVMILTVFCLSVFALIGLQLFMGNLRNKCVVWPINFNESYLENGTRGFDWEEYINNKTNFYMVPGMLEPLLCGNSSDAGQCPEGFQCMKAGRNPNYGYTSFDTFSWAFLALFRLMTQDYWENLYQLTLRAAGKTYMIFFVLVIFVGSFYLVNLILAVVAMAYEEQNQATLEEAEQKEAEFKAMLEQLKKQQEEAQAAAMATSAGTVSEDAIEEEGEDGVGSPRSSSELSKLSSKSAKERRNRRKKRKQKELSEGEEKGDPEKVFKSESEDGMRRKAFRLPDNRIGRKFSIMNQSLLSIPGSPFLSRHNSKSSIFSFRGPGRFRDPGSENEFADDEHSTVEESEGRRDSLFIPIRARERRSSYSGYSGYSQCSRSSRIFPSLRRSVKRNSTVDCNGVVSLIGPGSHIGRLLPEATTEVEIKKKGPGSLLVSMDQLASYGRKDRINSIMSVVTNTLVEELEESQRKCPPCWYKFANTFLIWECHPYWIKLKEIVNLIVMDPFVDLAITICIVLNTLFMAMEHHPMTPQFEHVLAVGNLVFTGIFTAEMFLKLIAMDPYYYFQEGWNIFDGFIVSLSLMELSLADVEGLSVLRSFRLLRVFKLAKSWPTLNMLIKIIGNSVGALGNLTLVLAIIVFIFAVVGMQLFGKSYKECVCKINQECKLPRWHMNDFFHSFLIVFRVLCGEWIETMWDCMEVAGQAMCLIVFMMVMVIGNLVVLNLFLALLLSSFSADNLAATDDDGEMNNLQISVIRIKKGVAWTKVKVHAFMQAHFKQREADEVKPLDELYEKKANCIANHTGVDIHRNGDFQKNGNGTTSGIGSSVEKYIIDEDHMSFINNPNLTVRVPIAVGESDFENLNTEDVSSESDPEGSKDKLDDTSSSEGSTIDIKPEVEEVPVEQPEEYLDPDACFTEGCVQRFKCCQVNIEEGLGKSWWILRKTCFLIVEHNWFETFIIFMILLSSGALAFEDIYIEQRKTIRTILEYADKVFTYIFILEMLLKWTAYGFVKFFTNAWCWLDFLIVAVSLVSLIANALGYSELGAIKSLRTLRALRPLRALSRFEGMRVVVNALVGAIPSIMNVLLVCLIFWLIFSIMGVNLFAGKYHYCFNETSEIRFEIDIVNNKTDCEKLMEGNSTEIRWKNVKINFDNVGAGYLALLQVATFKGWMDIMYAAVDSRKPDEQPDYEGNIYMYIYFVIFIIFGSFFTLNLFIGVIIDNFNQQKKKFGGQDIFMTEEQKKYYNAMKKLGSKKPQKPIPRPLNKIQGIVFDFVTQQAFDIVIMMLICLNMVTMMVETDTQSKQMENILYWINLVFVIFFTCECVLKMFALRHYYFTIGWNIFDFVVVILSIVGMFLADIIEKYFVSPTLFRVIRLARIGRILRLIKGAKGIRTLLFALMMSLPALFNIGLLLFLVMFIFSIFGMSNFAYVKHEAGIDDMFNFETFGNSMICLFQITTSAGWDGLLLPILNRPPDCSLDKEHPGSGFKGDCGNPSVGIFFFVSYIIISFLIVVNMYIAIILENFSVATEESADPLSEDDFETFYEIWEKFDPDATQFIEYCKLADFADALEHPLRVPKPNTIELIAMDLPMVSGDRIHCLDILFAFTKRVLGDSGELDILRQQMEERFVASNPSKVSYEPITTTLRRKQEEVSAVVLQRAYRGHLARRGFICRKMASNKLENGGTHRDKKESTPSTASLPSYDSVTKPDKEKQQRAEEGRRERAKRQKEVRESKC
# Chain of rat Nav1.6 sodium channels (Q00954 19-218 partner): as the sequence (Q00954 19-218 partner) above
# Chain of rat Nav1.6 sodium channels (P54900 30-215 partner): as the sequence (P54900 30-215 partner) above
compound,measurement,setting,value
C=CCC1=C(C)[C@@H](OC(=O)[C@@H]2[C@@H](C=C(C)C)C2(C)C)CC1=O [S-bioallethrin],Increase of inactivation-resistant current relative to control,"[1]; 100 μM, prepulses above 0 mV, control approximately 2% of total current",approximately five-fold
same,Effect of repetitive depolarization on modification (words),[1]; 100 μM,decreased slightly
same,Effect of repetitive depolarization on modification (words),"[1]; 100 μM, listed as S-Bioallethrin",no further enhancement of modification
same,Steady-state inactivation K (slope factor),[1],6.24 ± 0.23
same,Activation K (slope factor),[1],7.78 ± 0.52
same,Activation V0.5 (midpoint potential),[1],−19.2 ± 1.1 mV
same,Steady-state inactivation V0.5 (midpoint potential),[1],−52.8 ± 1.1 mV
same,"Tail current decay time constant, fast component (τ1)",[1],2.3 ± 0.4 ms
same,"Peak current inactivation time constant, fast component (τfast)",[1],2.11 ± 0.12 ^d ms
same,"Peak current inactivation time constant, slow component (τslow)",[1],7.30 ± 0.35 ^d ms
Cc1c(F)c(F)c(COC(=O)[C@@H]2[C@H](/C=C(\Cl)C(F)(F)F)C2(C)C)c(F)c1F (racemic) [tefluthrin],"EC10, resting modification",[1]; [5],14.1 ± 3.7 µM
same,"Prepulse number up to which extent of modification increased, then stable",[1]; 100 μM,80 prepulses
same,Tail current τ1 relative to S-bioallethrin-induced currents,[1]; 100 μM,approximately 4 fold
same,Increase of extent of channel modification by repetitive depolarization,"[1]; 100 μM, 100 prepulses vs 0 prepulses",2.8 fold
same,Potency relative to deltamethrin as use-dependent modifier (EC10),[1]; 100 prepulses,~ 10 fold
same,"EC10, use-dependent modification",[1]; [6],0.95 ± 0.22 µM
same,Increase of sensitivity (EC10) to the compound by repetitive depolarization,[1]; [7],~ 15 fold
same,Sensitivity of Nav1.6 isoform relative to Nav1.2 isoform (concentration–effect data),"[1]; abstract summary, state not specified",at least 15 fold
same,Steady-state inactivation K (slope factor),[1],6.03 ± 0.10 ^b
same,Activation K (slope factor),[1],8.06 ± 0.21
same,Activation V0.5 (midpoint potential),[1],−17.0 ± 1.0 mV
same,Steady-state inactivation V0.5 (midpoint potential),[1],−52.3 ± 1.2 mV
same,"Tail current decay time constant, fast component (τ1)",[1],9.8 ± 0.6 ms
same,"Peak current inactivation time constant, fast component (τfast)",[1],1.12 ± 0.04 ^d ms
same,"Peak current inactivation time constant, slow component (τslow)",[1],19.00 ± 0.64 ^d ms
same,"EC10, resting modification",[2]; [5],222 ± 82 µM
same,"EC10, use-dependent modification",[2]; [6],16.9 ± 5.5 µM
same,Increase of sensitivity (EC10) to the compound by repetitive depolarization,[2]; [7],approximately 13 fold
same,Acute oral LD50 lower than that of deltamethrin,rats [3],approximately 5 fold
CC1(C)[C@H](C(=O)O[C@H](C#N)c2cccc(Oc3ccccc3)c2)[C@@H]1C=C(Br)Br [deltamethrin],Acute oral LD50,rats [4],95 mg/kg
